# In patent US12415785B2, “Compound modulators of sting” (CTXT PTY LTD, priority 2019, dated 2025):
# Columns and labels:
# human STING (WT) = human STING (WT) (Homo sapiens (Human), UniProt Q86WV6, H232R); experiment: Surface plasmon resonance (SPR), STING (WT); assay type: binding; conditions: biotinylated STING on streptavidin chip, 8° C.
# Procedure: Biophysical experiments were performed with three different recombinant human STING protein variants designated according to allelic nomenclature of Yi et al., (2013). Codon optimized DNA sequences (for expression in Escherichia coli) encoding amino acid residues 149 to 345 (Swiss Prot Q86WV6) of human STING (WT), human STING (HAQ) and human STING (R232H) were synthesised by GenScript USA Inc (Piscataway, New Jersey, USA). These were ligated into a modified pET43a E. coli expression vector designed to encode N-terminal His tag followed by tobacco etch virus protease (TEV) cleavage site and a STING gene sequence. The resulting protein sequences for the three allelic variants are listed below:
# Binding interactions of ligands with STING proteins were quantified using Surface Plasmon Resonance (SPR) with a minimally biotinylated STING protein immobilized on a streptavidin chip surface. […] Minimal biotinylation of purified huSTING proteins was performed using a previously described methodology (Chhabra 2012). Briefly, approximately 20 nmol of recombinant STING protein in 1×TBS buffer (25 mM Tris-HCl, pH 7.5, 150 mM NaCl, 5 mM DTT) was mixed with of EZ-Link™ Sulfo-NHS-LC-LC-Biotin (Thermofisher Scientific, cat #21338) at a molar ratio of 1 to 0.6 and incubated on ice for 2 hours. To remove any unreacted biotin reagent, protein/biotin mixture was passed through a Superdex 75 (10/300 GL) column equilibrated with 10 mM HEPES, pH7.4, 150 mM NaCl, 5 mM DTT, 5%[v/v] glycerol. A protein peak containing biotinylated huSTING protein was collected and stored in aliquots at −80° C.
# Streptavidin was simultaneously immobilized in all four channels of a CM5 sensor chip docked in a Biacore instrument (either Biacore S200 or Biacore T200, GE Healthcare) as described previously (Zender 2013). Minimally biotinylated STING protein was captured onto a streptavidin coated chip surface at 8° C. in SPR binding buffer (50 mM HEPES, pH 7.4, 150 mM NaCl, 2%[v/v] DMSO) by gradually injecting in a single channel at a constant flow-rate of 2 μL/min until desired capture level was achieved, typically 3000 to 7000 RU (1 RU=1 pg/mm^2).
# All binding experiments were performed at 8° C. in SPR binding buffer. To determine binding affinity, compound interaction with immobilized STING protein was analysed using dose-response experiments. Fresh 10 mM DMSO solutions of compound were diluted directly into SPR binding buffer typically to a concentration of 50 μM and then further diluted 2-fold or 3-fold aiming for either a 5- or 7-point concentration series range. Each ligand concentration series was injected at a constant flow rate of 60 μL/min with a 90 second association and a 180 second dissociation time. These were modified for compounds with longer residence times, so that curves could reach steady-state, or so that compound would be fully dissociated before the subsequent injection.
# Scrubber 2 (www.biologic.com.au) was utilized for data processing, where signals were referenced against the blank surface (streptavidin+D-biotin) and further corrected for DMSO refractive index change and then “double-referenced” using a buffer-blank injection (Papalia 2006). Responses were fitted to either a 1:1 steady-state affinity model or a 1:1 kinetic model (that included a mass-transport component), available within Scrubber.
# [1] = biological target: WT human STING isoform (THP-1-Dual KI-hSTING-R232 cells) (Homo sapiens (Human), UniProt Q86WV6, H232R); experiment: THP-1-Dual KI-hSTING-R232 reporter cell line assay; assay type: cell-based; conditions: 24 h incubation, QUANTI-Luc luminescence
# Chain of WT human STING isoform (THP-1-Dual KI-hSTING-R232 cells) (Q86WV6 whole entry H232R, canonical isoform): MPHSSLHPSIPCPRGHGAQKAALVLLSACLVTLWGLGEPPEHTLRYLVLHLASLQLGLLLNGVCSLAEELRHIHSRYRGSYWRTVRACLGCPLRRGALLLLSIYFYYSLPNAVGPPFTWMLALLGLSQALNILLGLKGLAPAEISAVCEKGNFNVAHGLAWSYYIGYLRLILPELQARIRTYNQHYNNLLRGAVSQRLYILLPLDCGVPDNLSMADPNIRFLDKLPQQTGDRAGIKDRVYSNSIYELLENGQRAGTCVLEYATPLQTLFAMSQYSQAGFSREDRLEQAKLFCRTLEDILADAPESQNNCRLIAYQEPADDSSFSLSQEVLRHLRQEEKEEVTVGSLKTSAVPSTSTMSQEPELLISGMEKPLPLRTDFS
# Procedure: THP-1 STING Lucia ISG cells (InvivoGen #thpI-isg) were cultured in RPMI-1640 containing 2 mM L-glutamine, 25 mM HEPES, 100 μg/mL Normocin (InvivoGen) and 10% heat-inactivated FBS. Cells were seeded at a density of 7×10^5 cells/mL, maintained at 37° C./5% CO2, and passaged every 3-4 days. Selection pressure was maintained by the addition of 100 μg/mL Zeocin every second passage.
# Assay conditions: cells were harvested and resuspended at a concentration of 5×10^5 cells/mL in fresh growth media. Of this cell preparation 20 μL per well was dispensed into 384 well cell culture plates (Greiner, #781098X) and incubated at 37° C./5% CO2 for 2 hours. Concentration Response Curves (commonly 11 doses) were prepared by 2.5 fold serial dilution starting from 10 mM compound stock solution in DMSO. Compound dilutions were transferred into the cell culture plates using a pintool (0.1 μL transfer), control wells were matched for DMSO. Positive control wells received ML RR—S2 CDA (Med Chem Express HY12885B) in 5 μL of media to a final concentration of 40 μM. All other wells received additional 5 μL of media only to equalise volume. The plates were incubated for 24 h at 37° C./5% CO2.
# For the detection step, QUANTI-Luc (InvivoGen #rep-qlc1) was prepared according to manufacturer's instruction and 10 μL were added per well to the culture plates. Plates were shaken for ten seconds on an orbital shaker and left in the dark at room temperature for two minutes, before luminescence was read on a Perkin Elmer Envision plate reader.
# Data analysis: Luminescence raw data was normalised % activity relative to the signal of the positive control wells and negative control wells which were not treated with compound. The following formula was used to calculate normalised % activity from raw signals: % activity=(sample−negative)/(positive−negative)
# The THP-1 STING Lucia ISG cell EC50 provides an assessment of activity at the human HAQ isoform of STING. For assessing compound activity against the WT human STING isoform, an equivalent method was conducted where the cells used were THP-1-Dual KI-hSTING-R232 (InvivoGen #thpd-r232).
# Chain of human STING (WT) (Q86WV6 other isoform, or with tags, fused parts or gaps, stated change not applied): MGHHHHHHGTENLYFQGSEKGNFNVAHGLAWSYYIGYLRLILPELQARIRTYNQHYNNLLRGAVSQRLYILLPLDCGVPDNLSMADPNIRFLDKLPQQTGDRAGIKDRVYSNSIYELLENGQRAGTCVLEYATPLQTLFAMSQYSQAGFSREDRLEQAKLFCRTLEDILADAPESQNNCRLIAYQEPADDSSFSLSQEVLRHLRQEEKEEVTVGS
SMILES,Kd (human STING (WT)) [µM],EC50 [1] [µM]
"COc1c(C(N)=O)ccc2c1nc(-c1c(Cl)cccc1C(=O)O)n2CCn1c(-c2c(Cl)cccc2C(=O)O)nc2c(OC)c(C(N)=O)ccc21 (racemic) [Example 22, 2,2′-(Ethane-1,2-diylbis(5-carbamoyl-4-methoxy-1H-benzo[d]imidazole-1,2-diyl))bis(3-chlorobenzoic acid)]",0.077,1.45
"COc1c(C(N)=O)ccc2c1nc(-c1c(I)cccc1C(=O)O)n2CCn1c(-c2c(I)cccc2C(=O)O)nc2c(OC)c(C(N)=O)ccc21 (single isomer, unassigned) [Example 19.1, 2,2′-(Ethane-1,2-diylbis(5-carbamoyl-4-methoxy-1H-benzo[d]imidazole-1,2-diyl))bis(3-iodobenzoic acid)]",0.034,0.232
"COc1c(C(N)=O)ccc2c1nc(-c1c(Cl)cccc1-c1nn[nH]n1)n2CCn1c(-c2c(Cl)cccc2-c2nn[nH]n2)nc2c(OC)c(C(N)=O)ccc21 (single isomer, unassigned) [Example 23, 1,1′-(Ethane-1,2-diyl)bis(2-(2-chloro-6-(2H-tetrazol-5-yl)phenyl)-4-methoxy-1H-benzo[d]imidazole-5-carboxamide)]",0.043,2.47
"NC(=O)c1ccc2c(c1)nc(-c1c(Br)cccc1C(=O)O)n2CCn1c(-c2c(Br)cccc2C(=O)O)nc2cc(C(N)=O)ccc21 (single isomer, unassigned) [Example 29.1, 2,2′-(Ethane-1,2-diylbis(5-carbamoyl-1H-benzo[d]imidazole-1,2-diyl))bis(3-bromobenzoic acid)]",33,9.85
"COc1c(C(N)=O)ccc2c1nc(-c1ccc(Cl)cc1C(=O)O)n2CCn1c(-c2ccc(Cl)cc2C(=O)O)nc2c(OC)c(C(N)=O)ccc21 [Example 1, 6,6′-(Ethane-1,2-diylbis(5-carbamoyl-4-methoxy-1H-benzo[d]imidazole-1,2-diyl))bis(3-chlorobenzoic acid)]",200,0.895
"NC(=O)c1ccc2c(c1)nc(-c1ccccc1C(=O)O)n2CCn1c(-c2ccccc2C(=O)O)nc2cc(C(N)=O)ccc21 [Example 2, 2,2′-(Ethane-1,2-diylbis(5-carbamoyl-1H-benzo[d]imidazole-1,2-diyl))dibenzoic acid]",80,> 40
"NC(=O)c1ccc2c(c1)nc(-c1cc(Br)ccc1C(=O)O)n2CCn1c(-c2cc(Br)ccc2C(=O)O)nc2cc(C(N)=O)ccc21 [Example 3, 2,2′-(Ethane-1,2-diylbis(5-carbamoyl-1H-benzo[d]imidazole-1,2-diyl))bis(4-bromobenzoic acid)]",700,> 40
"COc1c(C(N)=O)ccc2c1nc(-c1ccccc1C(=O)O)n2CCn1c(-c2ccccc2C(=O)O)nc2c(OC)c(C(N)=O)ccc21 [Example 4, 2,2′-(Ethane-1,2-diylbis(5-carbamoyl-4-methoxy-1H-benzo[d]imidazole-1,2-diyl))dibenzoic acid]",> 10,32.5
"NC(=O)c1ccc2c(c1)nc(-c1ccccc1-c1nn[nH]n1)n2CCn1c(-c2ccccc2-c2nnn[nH]2)nc2cc(C(N)=O)ccc21 [Example 5, 2-(2-(1H-Tetrazol-5-yl)phenyl)-1-(2-(2-(2-(2H-tetrazol-5-yl)phenyl)-5-carbamoyl-1H-benzo[d]imidazol-1-yl)ethyl)-1H-benzo[d]imidazole-5-carboxamide]",30,6.4
"COc1c(C(N)=O)ccc2c1nc(-c1ccccc1-c1nn[nH]n1)n2CCn1c(-c2ccccc2-c2nn[nH]n2)nc2c(OC)c(C(N)=O)ccc21 [Example 6, 1,1′-(Ethane-1,2-diyl)bis(2-(2-(2H-tetrazol-5-yl)phenyl)-4-methoxy-1H-benzo[d]imidazole-5-carboxamide)]",40,0.936
"COc1c(C(N)=O)ccc2c1nc(-c1ccc(Cl)cc1-c1nn[nH]n1)n2CCn1c(-c2ccc(Cl)cc2-c2nn[nH]n2)nc2c(OC)c(C(N)=O)ccc21 [Example 9, 1,1′-(Ethane-1,2-diyl)bis(2-(4-chloro-2-(2H-tetrazol-5-yl)phenyl)-4-methoxy-1H-benzo[d]imidazole-5-carboxamide)]",40,0.715
"COc1c(C(N)=O)ccc2c1nc(-c1c(F)cccc1C(=O)O)n2CCn1c(-c2c(F)cccc2C(=O)O)nc2c(OC)c(C(N)=O)ccc21 [Example 10, 2,2′-(Ethane-1,2-diylbis(5-carbamoyl-4-methoxy-1H-benzo[d]imidazole-1,2-diyl))bis(3-fluorobenzoic acid)]",5.86,1.39
"COc1c(C(N)=O)ccc2c1nc(-c1c(F)cc(Cl)cc1C(=O)O)n2CCn1c(-c2c(F)cc(Cl)cc2C(=O)O)nc2c(OC)c(C(N)=O)ccc21 [Example 11, 2,2′-(ethane-1,2-diylbis(5-carbamoyl-4-methoxy-1H-benzo[d]imidazole-1,2-diyl))bis(5-chloro-3-fluorobenzoic acid)]",1.08,0.683
"COc1c(C(N)=O)ccc2c1nc(-c1cc(F)c(F)cc1C(=O)O)n2CCn1c(-c2cc(F)c(F)cc2C(=O)O)nc2c(OC)c(C(N)=O)ccc21 [Example 15, 6,6′-(Ethane-1,2-diylbis(5-carbamoyl-4-methoxy-1H-benzo[d]imidazole-1,2-diyl))bis(3,4-difluorobenzoic acid)]",1000,2.46
"COc1c(C(N)=O)ccc2c1nc(-c1c(F)cc(F)cc1C(=O)O)n2CCn1c(-c2c(F)cc(F)cc2C(=O)O)nc2c(OC)c(C(N)=O)ccc21 [Example 16, 2,2′-(Ethane-1,2-diylbis(5-carbamoyl-4-methoxy-1H-benzo[d]imidazole-1,2-diyl))bis(3,5-difluorobenzoic acid)]",1.52,0.84
"COc1c(C(N)=O)ccc2c1nc(-c1ccc(Cl)cc1-c1n[nH]c(=O)o1)n2CCn1c(-c2ccc(Cl)cc2-c2n[nH]c(=O)o2)nc2c(OC)c(C(N)=O)ccc21 [Example 17, 1,1′-(Ethane-1,2-diyl)bis(2-(4-chloro-2-(5-oxo-4,5-dihydro-1,3,4-oxadiazol-2-yl)phenyl)-4-methoxy-1H-benzo[d]imidazole-5-carboxamide)]",9.5,0.36
"COc1c(C(N)=O)ccc2c1nc(-c1ccc(Cl)c(Cl)c1-c1nn[nH]n1)n2CCn1c(-c2ccc(Cl)c(Cl)c2-c2nn[nH]n2)nc2c(OC)c(C(N)=O)ccc21 [Example 37, 1,1′-(Ethane-1,2-diyl)bis(2-(3,4-dichloro-2-(2H-tetrazol-5-yl)phenyl)-4-methoxy-1H-benzo[d]imidazole-5-carboxamide)]",,> 40
